# Laboratory results reported in US20080108645A1, “Dihydrotetrabenazines And Pharmaceutical Compositions Containing Them” (CAMBRIDGE LABORATORIES, (IRELAND), LTD., priority 2004, published 2008).
# Entries after “also recorded” stand apart in the source; their conditions may differ.
# Experiments:
# Monoamine Oxidase MAO-B = biological target: T1, Monoamine Oxidase MAO-B (Homo sapiens, UniProt P27338); experiment: Monoamine Oxidase MAO-B inhibition; assay type: biochemical; conditions: for inhibition at 10 µM: read-out: Percentage Inhibition of Enzyme Activity, MAO-B
# T1 sequence (P27338 1-520): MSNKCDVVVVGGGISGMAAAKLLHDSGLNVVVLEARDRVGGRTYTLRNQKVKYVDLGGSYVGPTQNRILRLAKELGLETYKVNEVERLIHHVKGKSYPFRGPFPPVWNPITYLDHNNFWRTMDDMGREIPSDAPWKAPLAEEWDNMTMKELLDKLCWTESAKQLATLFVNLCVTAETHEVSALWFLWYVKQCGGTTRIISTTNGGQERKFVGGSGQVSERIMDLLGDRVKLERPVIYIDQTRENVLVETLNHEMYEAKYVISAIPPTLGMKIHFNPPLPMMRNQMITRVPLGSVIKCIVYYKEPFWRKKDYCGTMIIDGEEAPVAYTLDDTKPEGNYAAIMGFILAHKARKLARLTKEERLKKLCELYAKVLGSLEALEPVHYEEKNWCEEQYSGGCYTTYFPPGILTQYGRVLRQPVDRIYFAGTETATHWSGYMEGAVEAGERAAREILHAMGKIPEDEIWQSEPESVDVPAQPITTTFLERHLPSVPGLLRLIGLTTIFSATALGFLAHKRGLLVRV
# Experimental: Isomers B and C were tested for their ability to inhibit enzymes involved in the processing of monoamines in the CNS, namely Catechol O-Methyl Transferase (COMT), Monoamine Oxidase A and Monoamine Oxidase B. The assay methods used are described below and the results are set out in Table 7. (a) Catechol O-Methyl Transferase (COMT) Inhibition • Source: […] None • Incubation time: 60 minutes @ 37° C. • Incubation buffer: 100 mM potassium phosphate, 10 mM MgCl2, 3 mM DTT containing 12 units/ml adenosine deaminase, pH 7.4 • Quantitation method: […]
# [1] = tested on: Catechol O-Methyl Transferase (COMT); experiment: Catechol O-Methyl Transferase (COMT) inhibition; assay type: biochemical, Porcine; conditions: for Percentage Inhibition of Enzyme Activity, COMT: 10 μM
# Experimental: Isomers B and C were tested for their ability to inhibit enzymes involved in the processing of monoamines in the CNS, namely Catechol O-Methyl Transferase (COMT), Monoamine Oxidase A and Monoamine Oxidase B. The assay methods used are described below and the results are set out in Table 7.
# (a) Catechol O-Methyl Transferase (COMT) Inhibition • Source: Porcine liver • Substrate: 3 mM catechol+S-adenosyl-L-[^3H]methionine • Vehicle: 1% DMSO • Pre-incubation time/Temp: None • Incubation time: 60 minutes @ 37° C. • Incubation buffer: 100 mM potassium phosphate, 10 mM MgCl2, 3 mM DTT containing 12 units/ml adenosine deaminase, pH 7.4 • Quantitation method: Quantitation of [^3H] guiacol. • Significance criteria: ≧50% of maximum stimulation or inhibition (b) Monoamine Oxidase MAO-A Inhibition • Source: Human recombinant • Substrate: 50 μM kynuramine • Vehicle: 1% DMSO • Pre-incubation time/Temp: 15 minutes @ 37° C. • Incubation time: 60 minutes @ 37° C. • Incubation buffer: 100 mM KH2PO4, pH 7.4 • Quantitation method: Spectrofluorimetric quantitation of 4-hydroxyquinoline • Significance criteria: ≧50% of maximum stimulation or inhibition (c) Monoamine Oxidase MAO-B Inhibition • Source: Human recombinant • Substrate: 50 μM kynuramine • Vehicle: 1% DMSO • Pre-incubation time/Temp: 15 minutes @ 37° C. • Incubation time: 60 minutes @ 37° C. • Incubation buffer: 100 mM KH2PO4, pH 7.4 • Quantitation method: Spectrofluorimetric quantitation of 4-hydroxyquinoline • Significance criteria: ≧50% of maximum stimulation or inhibition
# 5-HT1D/1B receptors = experiment: 5-HT1D/1B binding assay, [N-methyl 3H] GR-125743, rat forebrain P2 membranes
# Experimental: The ability of Compound B and Compound C to bind to 5-HT1D/1B receptors was tested using an assay based on the one described by Millan, M J et al. (2002) Pharmacol. Biochem. Behav. […] [N-methyl ^3H] GR-125743 was used as the radioligand for both 5-HT1D and 5-HT1B receptors. Adult SD rat forebrain P2 membranes (Chazot et al., 1993) were used for the assay. The assay buffer used was 50 mM Tris-HCl pH 7.7 at room temperature containing 4 mM calcium chloride, 0.1% ascorbic acid and 10 μM pargyline. 5-HT (10 μM) was used to define non-specific binding. Incubation with 1 nM [^3H] GR-125743 was carried out for 1 hour at room temperature, and the reaction was terminated by rapid filtration using a Brandel Harvester through GF/B filters pre-soaked in 0.1% polyethyleneimine, followed by three washes with ice-cold buffer (supplemented with 0.1% BSA). A dose range of 10^−10-10^−4M was utilised. The resultant competition curves were analysed using the GraphPad Prism 4 package.
# [2] = biological target: T2, Dopamine Transporter (DAT) (Homo sapiens, UniProt Q01959); experiment: Dopamine transporter (DAT) radioligand binding; conditions: for Percentage Inhibition of Specific Binding, DAT: 10 μM, 0.15 nM [125I] RTI-55
# T2 construct: expressed in transfected cells; host or cells: CHO cells
# T2 sequence (Q01959 whole entry): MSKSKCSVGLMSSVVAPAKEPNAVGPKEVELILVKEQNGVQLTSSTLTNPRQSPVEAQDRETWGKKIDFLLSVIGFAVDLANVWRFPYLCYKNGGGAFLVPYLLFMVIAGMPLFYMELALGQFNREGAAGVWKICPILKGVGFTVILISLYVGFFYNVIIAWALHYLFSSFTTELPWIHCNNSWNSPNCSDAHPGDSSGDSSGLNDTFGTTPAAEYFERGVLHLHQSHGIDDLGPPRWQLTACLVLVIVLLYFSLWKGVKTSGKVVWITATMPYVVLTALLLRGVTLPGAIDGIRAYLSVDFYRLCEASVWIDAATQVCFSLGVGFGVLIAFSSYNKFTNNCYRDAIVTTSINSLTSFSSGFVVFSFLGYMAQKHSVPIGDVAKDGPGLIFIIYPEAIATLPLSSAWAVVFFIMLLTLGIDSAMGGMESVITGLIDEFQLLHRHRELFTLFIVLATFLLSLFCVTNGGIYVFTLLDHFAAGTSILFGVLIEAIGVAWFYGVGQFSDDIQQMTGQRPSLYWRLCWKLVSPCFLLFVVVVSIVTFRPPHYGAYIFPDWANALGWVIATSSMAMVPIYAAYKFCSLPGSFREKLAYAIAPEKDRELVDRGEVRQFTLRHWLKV
# Experimental: (a) Adrenergic α2A Receptor: • Reference: S. Uhlen et al. J. Pharmacol. Exp. Ther., 271:1558-1565 (1994) • Source: Human recombinant insect Sf9 cells • Ligand: 1 nM [^3H] […] J. Pharmacol., 99:803-809, (1990) • Source: Wistar rat cerebral cortex • Ligand: 2 nM [3H]
SMILES,inhibitory activity against monoamine oxidase isoform B (in words) (Monoamine Oxidase MAO-B),inhibition at 10 µM (Monoamine Oxidase MAO-B) [%],inhibitory activity against COMT (in words) [1],"Percentage Inhibition of Enzyme Activity, COMT [1] [%]",affinity/activity at 5-HT1D/1B (in words) (5-HT1D/1B receptors),DAT binding activity (in words) [2],"Percentage Inhibition of Specific Binding, DAT [2] [%]"
"COc1cc2c(cc1OC)[C@H]1C[C@@H](O)[C@@H](CC(C)C)CN1CC2 (single isomer, unassigned) [Isomer C, 3,11b-cis-dihydrotetrabenazine]",no inhibitory activity,-5,no inhibitory activity,−22,low affinity for 5-HT1D/1B receptors; also recorded: no inhibitory activity,lack Dopamine Transporter (DAT) binding activity,−2
"COc1cc2c(cc1OC)[C@H]1C[C@H](O)[C@@H](CC(C)C)CN1CC2 (single isomer, unassigned) [Isomer B, 3,11b-cis-dihydrotetrabenazine]",no inhibitory activity,-5,no inhibitory activity,−12,low affinity for 5-HT1D/1B receptors; also recorded: no inhibitory activity,lack Dopamine Transporter (DAT) binding activity,4
